Reference: paper PMC3913857, “Regorafenib in Japanese patients with solid tumors: phase I study of safety, efficacy, and pharmacokinetics” (Investigational New Drugs, 2013)
Like-named read-outs stand apart in the source and are kept apart here. Marks after values point to notes of the source that are not given here. One block for each compound: values may come before it.

Legend:
clinical = assay: clinical; design: species or system Japanese patients; details: in vivo
Experimental: Patients who provided at least one evaluable pharmacokinetic sample were eligible for pharmacokinetic analyses.
Plasma concentrations of regorafenib and its metabolites were determined by fully validated liquid chromatography–tandem mass spectrometry after protein precipitation with acetonitrile/ammonium acetate buffer containing the internal standards [^2H3 ^15N] BAY 73-4506 (for regorafenib), [^2H3 ^15N] […] BAY 81-8752 (for the M5 metabolite).

[1] = system: UDP-glucuronosyltransferase 1A9; design: method as in ref 11 = [11]; 11. Bayer HealthCare AG, data on file; details: in vitro, glucuronidation; cited from earlier work
[2] = system: treatment-refractory advanced solid tumors; assay: Tumor response (RECIST version 1.0), Japan phase I study; assay type: in vivo, Japanese patients
Experimental: (§1) All patients who received at least one dose of regorafenib were eligible for safety analyses and were included in the efficacy analyses if they also had post-baseline efficacy data. For the safety analysis, physical examination, vital signs, use of concomitant medications, and laboratory test data were reported, and patients were routinely monitored for adverse events, which were recorded with severity and relationship to study medication according to the National Cancer Institute Common Terminology Criteria for Adverse Events version 3.0. Tumor response was assessed every 8 weeks for the first 6 cycles and every 12 weeks after Cycle 6 by Response Evaluation Criteria in Solid Tumors version 1.0, using the same imaging techniques and methods as at baseline. The response rate was defined as the proportion of patients whose best response was a confirmed partial or complete response.

[3] = design: method as in ref 7 = [7]; 7. Eisen T, Joenssu H, Nathan P Harper P, Wojtukiewicz M, Nicholson S, Bahl A, Tomczak P, Wagner A, Quinn D (2011) Phase II trial of the oral multi kinase inhibitor regorafenib (BAY 73-4506) as first-; details: European phase II study, advanced renal cell carcinoma, n = 49, cited from earlier work
[4] = Safety: adverse events (NCI CTCAE v3.0) and laboratory toxicities, Japan phase I study; design: species or system Japanese patients; details: in vivo
Experimental: as §1
Unacceptable toxicity was defined as any of the following events occurring during Cycle 1 and considered to be related to study drug: grade 4 neutropenia (for ≥7 days); febrile neutropenia with grade 4 neutropenia and fever; grade 4 thrombocytopenia; grade 3 or 4 nonhematologic toxicities (excluding events considered to be tolerable by the investigator). If two of the first three or three of the first six patients treated with regorafenib experienced unacceptable toxicities during Cycle 1, the safety data were reviewed by the Data Monitoring Committee, which considered whether protocol amendments were needed to address any safety concerns before subsequent patients were treated.

[5] = design: method as in PMID 22421192; details: European phase I study, 160 mg cohort only, n = 12, cited from earlier work
[6] = design: method as in PMID 22421192, PMID 22568966; details: European phase I and II studies; cited from earlier work
cytochrome p450 3A4 = system: cytochrome p450 3A4; design: method as in ref 11 = [11]; 11. Bayer HealthCare AG, data on file; details: in vitro; cited from earlier work
[7] = any time after start of study treatment

AUC from 0 to 24 h of metabolite as share of regorafenib (clinical; human): 21.5%
t 1/2 (terminal half life) (clinical; human): 57.5 (33.7) h
t max (clinical; human): 35.6 (0.6–73.2) h
AUC (clinical; human, po, 160 mg): 3,441.8 (112.0)^a μg.h/L
AUC0–24 (clinical; human, po, 160 mg): 380.5/164.2 (112.0)^a μg.h/L
C max (clinical; human, po, 160 mg): 31.1 (167.3)^a μg/L
t max (clinical; human, po, 160 mg): 24.0 (2.8–71.3)^a h
Change in t max and t 1/2 between single dosing and 21-day multiple dosing (clinical): no significant change
SMILES: NC(=O)c1cc(Oc2ccc(NC(=O)Nc3ccc(Cl)c(C(F)(F)F)c3)c(F)c2)cc[n+]1[O-] [M5]

SMILES: CNC(=O)c1cc(Oc2ccc(NC(=O)Nc3ccc(Cl)c(C(F)(F)F)c3)c(F)c2)ccn1 [Regorafenib]
Metabolizing enzyme [1]: UDP-glucuronosyltransferase 1A9 glucuronidation
AUC (clinical; human, po, 160 mg): 34600 ng·h/mL
AUC(0-t) (clinical; human, po, 160 mg): 16400 ng·h/mL
Cmax (clinical; human, po, 160 mg): 1370 ng/mL
t 1/2 (terminal half life) (clinical; human, po, 160 mg): 27.4 (29.9) h
t max (clinical; human, po, 160 mg): 4 h
half-life (clinical; human, po, 160 mg, t 1/2 (terminal half life)): ~27 h
AUC(0-t) (clinical; human, Cycle 1 day 21, regorafenib 160 mg once daily for 21 days, N = 12, geometric mean (% coefficient of variance), read-out: AUC0–24): 33000 ng·h/mL
Cmax (clinical; human, Cycle 1 day 21, regorafenib 160 mg once daily for 21 days, N = 12, geometric mean (% coefficient of variance), read-out: C max): 2520 ng/mL
half-life (clinical; human, Cycle 1 day 21, regorafenib 160 mg once daily for 21 days, N = 12, geometric mean (% coefficient of variance), read-out: t 1/2 (terminal half life) (converted)): 30.4 h
t max (clinical; human, Cycle 1 day 21, regorafenib 160 mg once daily for 21 days, N = 12, median (range), read-out: t max): 3.6 h
Change in t max and t 1/2 between single dosing and 21-day multiple dosing (clinical): no significant change
Complete response ([2]; 15 patients): no patient
Overall response rate ([2]; 15 patients, 95 % confidence interval 0.2–31.9 %): 7%
Median time to progression ([2]; 95 % confidence interval 1.9–12.4 months): 3.7 months
Duration of response (partial response) ([2]; one patient, pancreatic neuroendocrine tumor): 10.5 months
Incidence of biochemical toxicities: ALT, all grades [3, 7]: 39%
Incidence of biochemical toxicities: ALT, grade 3/4 [3, 7]: 2%
Incidence of biochemical toxicities: AST, all grades [3, 7]: 41%
Incidence of biochemical toxicities: AST, grade 3/4 [3, 7]: 2%
Adverse events: Alopecia, all grades ([3]; untreated): 45%
Adverse events: Alopecia, grade 3/4 ([3]; untreated): 0%
Adverse events: Anorexia, all grades ([3]; untreated): 29%
Adverse events: Anorexia, grade 3/4 ([3]; untreated): 6%
Adverse events: Diarrhea, all grades ([3]; untreated): 45%
Adverse events: Diarrhea, grade 3/4 ([3]; untreated): 10%
Adverse events: Fatigue, all grades ([3]; untreated): 53%
Adverse events: Fatigue, grade 3/4 ([3]; untreated): 8%
Adverse events: Hand–foot skin reaction, all grades ([3]; untreated): 71%
Adverse events: Hand–foot skin reaction, grade 3/4 ([3]; untreated): 33%
Adverse events: Hypertension, all grades ([3]; untreated): 49%
Adverse events: Hypertension, grade 3/4 ([3]; untreated): 6%
Adverse events: Rash, all grades ([3]; untreated): 39%
Adverse events: Rash, grade 3/4 ([3]; untreated): 6%
Adverse events: Voice changes/hoarseness, all grades ([3]; untreated): 35%
Adverse events: Voice changes/hoarseness, grade 3/4 ([3]; untreated): 0%
Biochemical abnormality: alkaline phosphatase (ALP) elevation ([4]; human): 93%
Biochemical abnormality: hypoalbuminemia ([4]; human): 93%
Biochemical abnormality: hypophosphatemia ([4]; human): 80%
Biochemical abnormality: proteinuria ([4]; human): 80%
Biochemical toxicity: ALP elevation, any grade ([4]; human): 14 (93) n (%)
Biochemical toxicity: ALP elevation, grade 3 or 4 ([4]; human): 2 (13) n (%)
Biochemical toxicity: ALT elevation, any grade ([4]; human): 12 (80) n (%)
Biochemical toxicity: ALT elevation, grade 3 or 4 ([4]; human): 3 (20) n (%)
Biochemical toxicity: AST elevation, any grade ([4]; human): 13 (87) n (%)
Biochemical toxicity: AST elevation, grade 3 or 4 ([4]; human): 3 (20) n (%)
Biochemical toxicity: Hypoalbuminemia, any grade ([4]; human): 14 (93) n (%)
Biochemical toxicity: Hypoalbuminemia, grade 3 or 4 ([4]; human): 0 n (%)
Biochemical toxicity: Hypocalcemia, any grade ([4]; human): 9 (60) n (%)
Biochemical toxicity: Hypocalcemia, grade 3 or 4 ([4]; human): 0 n (%)
Biochemical toxicity: Hypophosphatemia, any grade ([4]; human): 12 (80) n (%)
Biochemical toxicity: Hypophosphatemia, grade 3 or 4 ([4]; human): 4 (27) n (%)
Biochemical toxicity: Proteinuria, grade 3 or 4 ([4]; human): 1 (7) n (%)
Incidence of biochemical toxicities: ALT, grade 3/4 ([4]; human): 20%
Incidence of biochemical toxicities: AST, all grades ([4]; human): 87%
Incidence of biochemical toxicities: AST, grade 3/4 ([4]; human): 20%
Patients with at least one drug-related treatment-emergent adverse event of any grade ([4]; human): 15 patients
Treatment discontinuation for adverse event: anemia ([4]; human): 1 n
Treatment discontinuation for adverse event: liver enzyme elevation ([4]; human): 1 n
Grade of drug-related adverse event resulting in treatment reduction or interruption: ALT elevation ([4]; human, 1 cycle): 3
Grade of drug-related adverse event resulting in treatment reduction or interruption: AST elevation ([4]; human, 1 cycle): 3
Grade of drug-related adverse event resulting in treatment reduction or interruption: Hypertension ([4]; human, 1 cycle): 2
Grade of drug-related adverse event resulting in treatment reduction or interruption: Leukopenia ([4]; human, 1 cycle): 2
Grade of drug-related adverse event resulting in treatment reduction or interruption: Neutropenia ([4]; human, 1 cycle): 3
Grade of drug-related adverse event resulting in treatment reduction or interruption: Thrombocytopenia ([4]; human, 1 cycle): 2
Grade of drug-related adverse event resulting in treatment reduction or interruption: ALT elevation ([4]; human, 2 cycle): 4
Grade of drug-related adverse event resulting in treatment reduction or interruption: Hand–foot skin reaction ([4]; human, 2 cycle): 3
Grade of drug-related adverse event resulting in treatment reduction or interruption: Dental pulpitis ([4]; human, 3 cycle): 2
Grade of drug-related adverse event resulting in treatment reduction or interruption: Diarrhea ([4]; human, 3 cycle): 3
Grade of drug-related adverse event resulting in treatment reduction or interruption: Hand–foot skin reaction ([4]; human, 3 cycle): 1
Grade of drug-related adverse event resulting in treatment reduction or interruption: Hand–foot skin reaction (event cell empty, from line above) ([4]; human, 3 cycle): 1
Grade of drug-related adverse event resulting in treatment reduction or interruption: Hand–foot skin reaction ([4]; human, 7 cycle): 3
Grade of drug-related adverse event resulting in treatment reduction or interruption: Hand–foot skin reaction (event cell empty, from line above) ([4]; human, 9 cycle): 1
Grade of drug-related adverse event resulting in treatment reduction or interruption: Proteinuria ([4]; human, 9 cycle): 3
Grade of drug-related adverse event resulting in treatment reduction or interruption: Proteinuria ([4]; human, 10 cycle): 2
Grade of drug-related adverse event resulting in treatment reduction or interruption: Back pain ([4]; human, 11 cycle): 3
Grade of drug-related adverse event resulting in treatment reduction or interruption: Gingivitis ([4]; human, 18 cycle): 2
Changes in vital signs or electrocardiogram findings [4]: No clear changes
Cycle delay (start of next cycle delayed longer than 7 days) because of adverse events [4]: four
Dose reduction because of adverse events [4]: six
Drug-related adverse events leading to dose interruption or dose reduction [4]: eight
Interruption of regorafenib during daily treatment because of adverse events [4]: seven
Serious adverse events [4]: six
Serious adverse events deemed treatment-related [4]: three
Treatment-related deaths [4]: No treatment-related deaths
Incidence of biochemical toxicities: ALT, all grades [5, 7]: 75%
Incidence of biochemical toxicities: ALT, grade 3/4 [5, 7]: 25%
Incidence of biochemical toxicities: AST, all grades [5, 7]: 75%
Incidence of biochemical toxicities: AST, grade 3/4 [5, 7]: 25%
Adverse events: Alopecia, all grades [5]: 33%
Adverse events: Alopecia, grade 3/4 [5]: 0%
Adverse events: Anorexia, all grades [5]: 50%
Adverse events: Anorexia, grade 3/4 [5]: 8%
Adverse events: Diarrhea, all grades [5]: 50%
Adverse events: Diarrhea, grade 3/4 [5]: 17%
Adverse events: Fatigue, all grades [5]: 17%
Adverse events: Fatigue, grade 3/4 [5]: 0%
Adverse events: Hand–foot skin reaction, all grades [5]: 67%
Adverse events: Hand–foot skin reaction, grade 3/4 [5]: 25%
Adverse events: Hypertension, all grades [5]: 50%
Adverse events: Hypertension, grade 3/4 [5]: 17%
Adverse events: Rash, all grades [5]: 50%
Adverse events: Rash, grade 3/4 [5]: 8%
Adverse events: Voice changes/hoarseness, all grades [5]: 42%
Adverse events: Voice changes/hoarseness, grade 3/4 [5]: 0%
Frequency of hand–foot skin reaction [6]: 67–71%
Metabolizing enzyme (cytochrome p450 3A4): metabolized by cytochrome p450 3A4
